Patent US9663514B2 (Takeda Pharmaceutical Company Limited, priority 2011, dated 2017)

Biological target: T1, SYK (Homo sapiens, UniProt P43405)
T1 construct: The SYK kinase domain (residues 356-635) is amplified via PCR; made in house; host or cells: Sf9 insect cells (baculovirus, pFastBac1)
Assay: SYK inhibition: in vitro assay of SYK-mediated phosphorylation of FAM-labeled substrate (Caliper LC-3000)
Type: biochemical
Conditions: SYK kinase domain (residues 356-635); 2.4 nM SYK and 45 μM ATP, 3 μM 5FAM-KKKKEEIYFFFG-NH2, RT 60 min, pH 7.3; pIC50 = −log(IC50), IC50 molar
Experimental: The ability of compounds to inhibit SYK activity may be assessed using a variety of methods, including in vitro and in vivo assays. The following in vitro assay measures a test compound's ability to inhibit SYK-mediated phosphorylation of a FAM-labeled SYK-specific substrate (5FAM-KKKKEEIYFFFG-NH2).
SYK protein is prepared from cDNA encoding human spleen tyrosine kinase and is expressed in insect cells using a baculovirus expression vector. The cDNA (IMAGE: 3542895) is purchased from Open Biosystems. The SYK kinase domain (residues 356-635) is amplified via PCR and cloned into plasmid pFastBacl (Invitrogen) at BamHI/XbaI sites. Recombinant plasmid encoding Met-Ala-Lys-SYK(356-635)-HHHHHH is sequenced and transformed into E. coli DH10Bac strain. The recombinant bacmid DNA is isolated and transfected into Sf9 insect cells. Recombinant virus is harvested 72 h after transfection. High titer viral stock is prepared by infecting Sf9 cells at a multiplicity of infection (MOI) of approximately 0.01. A suspension of Sf9 cells (10 L) is infected with recombinant virus (MOI=5) and is incubated in a Wave Bioreactor (GE-Healthcare) for 48 h. The cells are harvested and stored at −80° C.
To purify the expressed protein, the frozen Sf9 cells (10 L) are broken into small (<1 cm) particles and suspended in a lysis buffer (300 mL) containing 20 mM Tris (pH 7.6), 0.25 mM TCEP, 100 mM NaCl, 5% glycerol and a protease inhibitor. The suspension is stirred at RT until completely thawed, lysed an additional 2-4 min on a rotary blade homogenizer, and then centrifuged at 4200 g for 1 h. Following centrifugation, the supernatant is poured through cheese cloth and combined with a nickel chelating resin (Probond Resin™, Invitrogen) which is pre-equilibrated in a wash buffer containing 10 mM Tris (pH 7.6), 0.25 mM TCEP, 300 mM NaCl, 5% glycerol, and 20 mM imidazole. The mixture is agitated for 3 h in a cold room and then centrifuged at 900 g for 10 min. The resin is dispersed in wash buffer (50 mL), centrifuged for 10 min at 900 g, re-dispersed in a small amount of wash buffer (5 mL), and then pour into a disposable Poly-Prep chromatography column, through which wash buffer is passed by gravity until no protein is observed in coomassie buffer (about 120 mL of wash buffer). An elution buffer (30 mL) containing 10 mM HEPES (pH 7.4), 150 mM NaCl, 10% glycerol, 5 mM DTT, and 400 mM imidazole is used to elute the SYK protein from the resin. The eluate is concentrated (5 mL) and further purified on a Superdex 200 column (1.2 mL/min for 160 min, 10 mM HEPES (pH 7.4), 10 mM NaCl, 10 mM MgCl, 0.1 mM EDTA, and 0.25 mM TCEP). The chromatographed fractions are run on SDS-PAGE and the requisite fractions are pooled and concentrated. Final delivery buffer is 10 mM HEPES (pH 7.4), 10 mM Methione, 150 mM NaCl, 10% glycerol, 5 mM DTT.
SYK inhibition is determined using a black 384 well plate format in buffer containing 50 mM HEPES, 10 mM NaCl, 10 mM MgCl2, 0.2 mM EDTA, 0.01% EDA (Brij®35), 1 mM DTT, and 0.1 mg/ml BSA at pH 7.3. Each test compound is prepared in DMSO using 2-fold serial dilutions for 11 data points, which are added to the buffer so that each dilution contains 3% DMSO. To each well is added 2 μL of 3 μM SFAM-KKKKEEIYFFFG-NH2 (in buffer), 2 μL of diluted test compound (3% DMSO in buffer), and 2 μL of 2.4 nM SYK and 45 μM ATP (in buffer). The reaction mixture is incubated at RT for 60 min, and quenched by adding 50 mM Hepes, 30 mM EDTA, 0.1% Triton X-100 (pH 7.3). To quantify the fluorescent-labeled substrate and product following reaction, the test plate is loaded on a Caliper LC-3000, which measures percent of conversion by microfluidic-based separation. Corresponding IC50 values are calculated by non-linear curve fitting of the compound concentrations and percent of inhibition to the standard IC50 equation and reported as pIC50, i.e., −log(IC50), where IC50 is molar concentration.

IC50	SMILES
39.8 nM	C[C@H]1NC(=O)c2c(-c3cnn4ccc(F)cc34)nc(N[C@@H]3CCCC[C@@H]3N)c(F)c21 [Example 52, (R)-6-(((1R,2S)-2-Aminocyclohexyl)amino)-7-fluoro-4-(5-fluoropyrazolo[1,5-a]pyridin-3-yl)-1-methyl-1H-pyrrolo[3,4-c]pyridin-3(2H)-one]
0.2 nM	N[C@H]1COCC[C@H]1Nc1nc(-c2cc3cc(C(=O)O)ccn3c2)c2c(c1F)CNC2=O [Example 40, 2-(6-((3R,4R)-3-Aminotetrahydro-2H-pyran-4-ylamino)-7-fluoro-3-oxo-2,3-dihydro-1H-pyrrolo[3,4-c]pyridin-4-yl)indolizine-7-carboxylic acid]
10 nM	N[C@H]1CCCC[C@H]1Nc1nc(-c2cc3n(c2)CCOC3)c2c(c1F)CNC2=O [Example 35, 6-((1R,2S)-2-Aminocyclohexylamino)-4-(3,4-dihydro-1H-pyrrolo[2,1-c][1,4]oxazin-7-yl)-7-fluoro-1H-pyrrolo[3,4-c]pyridin-3(2H)-one]
0.251 nM	N[C@H]1COCC[C@H]1Nc1nc(-c2cc3cccnc3s2)c2c(c1F)CNC2=O [Example 13, 6-((3R,4R)-3-Aminotetrahydro-2H-pyran-4-ylamino)-7-fluoro-4-(thieno[2,3-b]pyridin-2-yl)-1H-pyrrolo[3,4-c]pyridin-3(2H)-one]
1.58 nM	N[C@H]1CCCC[C@H]1Nc1nc(-c2cc(F)cs2)c2c(c1F)CNC2=O [Example 28, 6-((1R,2S)-2-Aminocyclohexylamino)-7-fluoro-4-(4-fluorothiophene-2-yl)-1H-pyrrolo[3,4-c]pyridin-3(2H)-one]
0.631 nM	Cc1c2sc(-c3nc(N[C@@H]4CCCC[C@@H]4N)c(F)c4c3C(=O)NC4)cc2nn1C [Example 33, 6-((1R,2S)-2-Aminocyclohexylamino)-4-(2,3-dimethyl-2H-thieno[3,2-c]pyrazol-5-yl)-7-fluoro-1H-pyrrolo[3,4-c]pyridin-3(2H)-one]
5.01 nM	N[C@H]1COCC[C@H]1Nc1nc(/C=C/c2ccc(F)cc2)c2c(c1F)CNC2=O [Example 46, 6-((3R,4R)-3-Aminotetrahydro-2H-pyran-4-ylamino)-7-fluoro-4-(4-fluorostyryl)-1H-pyrrolo[3,4-c]pyridin-3(2H)-one]
0.251 nM	N[C@H]1COCC[C@H]1Nc1nc(-c2cc3cnccc3s2)c2c(c1F)CNC2=O [Example 17, 6-((3R,4R)-3-Aminotetrahydro-2H-pyran-4-ylamino)-7-fluoro-4-(thieno[3,2-c]pyridin-2-yl)-1H-pyrrolo[3,4-c]pyridin-3(2H)-one]
0.398 nM	N[C@H]1COCC[C@H]1Nc1nc(-c2cc3c(F)cccc3s2)c2c(c1F)CNC2=O [Example 23, 6-((3R,4R)-3-Aminotetrahydro-2H-pyran-4-ylamino)-7-fluoro-4-(4-fluorobenzo[b]thiophen-2-yl)-1H-pyrrolo[3,4-c]pyridin-3(2H)-one]
3.98 nM	CCc1cc(-c2nc(N[C@@H]3CCOC[C@@H]3N)c(F)c3c2C(=O)NC3)sn1 [Example 2, 6-((3R,4R)-3-Aminotetrahydro-2H-pyran-4-ylamino)-4-(3-ethylisothiazol-5-yl)-7-fluoro-1H-pyrrolo[3,4-c]pyridin-3(2H)-one]
5.01 nM	N[C@H]1COCC[C@H]1Nc1nc(-c2cc(F)cs2)c2c(c1F)CNC2=O [Example 27, 6-((3R,4R)-3-Aminotetrahydro-2H-pyran-4-ylamino)-7-fluoro-4-(4-fluorothiophene-2-yl)-1H-pyrrolo[3,4-c]pyridin-3(2H)-one]
398 nM	C[C@@H]1NC(=O)c2c(-c3cnn4ccc(F)cc34)nc(N[C@@H]3CCCC[C@@H]3N)c(F)c21 [Example 53, (S)-6-(((1R,2S)-2-Aminocyclohexyl)amino)-7-fluoro-4-(5-fluoropyrazolo[1,5-a]pyridin-3-yl)-1-methyl-1H-pyrrolo[3,4-c]pyridin-3(2H)-one]
0.2 nM	N[C@H]1COCC[C@H]1Nc1nc(-c2cc3ccncc3s2)c2c(c1F)CNC2=O [Example 9, 6-((3R,4R)-3-Aminotetrahydro-2H-pyran-4-ylamino)-7-fluoro-4-(thieno[2,3-c]pyridin-2-yl)-1H-pyrrolo[3,4-c]pyridin-3(2H)-one]
0.251 nM	N[C@H]1CCCC[C@H]1Nc1nc(-c2cc3ccc(F)cc3s2)c2c(c1F)CNC2=O [Example 20]
0.2 nM	N[C@H]1COCC[C@H]1Nc1nc(-c2cc3cc(F)ccc3s2)c2c(c1F)CNC2=O [Example 7, 6-((3R,4R)-3-Aminotetrahydro-2H-pyran-4-ylamino)-7-fluoro-4-(5-fluorobenzo[b]thiophen-2-yl)-1H-pyrrolo[3,4-c]pyridin-3(2H)-one]
0.1 nM	Cn1ncc2sc(-c3nc(N[C@@H]4CCOC[C@@H]4N)c(F)c4c3C(=O)NC4)cc21 [Example 30, 6-((3R,4R)-3-Aminotetrahydro-2H-pyran-4-ylamino)-7-fluoro-4-(1-methyl-1H-thieno[3,2-c]pyrazol-5-yl)-1H-pyrrolo[3,4-c]pyridin-3(2H)-one]
0.158 nM	N[C@H]1CCCC[C@H]1Nc1nc(-c2cc3cccnc3s2)c2c(c1F)CNC2=O [Example 14, 6-((1R,2S)-2-Aminocyclohexylamino)-7-fluoro-4-(thieno[2,3-b]pyridin-2-yl)-1H-pyrrolo[3,4-c]pyridin-3(2H)-one]
0.1 nM	Cn1ncc2sc(-c3nc(N[C@@H]4CCCC[C@@H]4N)c(F)c4c3C(=O)NC4)cc21 [Example 29, 6-((1R,2S)-2-Aminocyclohexylamino)-7-fluoro-4-(1-methyl-1H-thieno[3,2-c]pyrazol-5-yl)-1H-pyrrolo[3,4-c]pyridin-3(2H)-one]
0.2 nM	Cc1nn(C)c2cc(-c3nc(N[C@@H]4CCOC[C@@H]4N)c(F)c4c3C(=O)NC4)sc12 [Example 32, 6-((3R,4R)-3-Aminotetrahydro-2H-pyran-4-ylamino)-4-(1,3-dimethyl-1H-thieno[3,2-c]pyrazol-5-yl)-7-fluoro-1H-pyrrolo[3,4-c]pyridin-3(2H)-one]
50.1 nM	Cc1ccn2ncc(-c3nc(N[C@@H]4CCCC[C@@H]4N)c(F)c4c3C(=O)N[C@@H]4C)c2c1 [Example 54, (R)-6-(((1R,2S)-2-Aminocyclohexyl)amino)-7-fluoro-1-methyl-4-(5-methylpyrazolo[1,5-a]pyridin-3-yl)-1H-pyrrolo[3,4-c]pyridin-3(2H)-one]
12.6 nM	Cc1ccn2ncc(-c3nc(N[C@@H]4CCOC[C@@H]4N)c(F)c4c3C(=O)NC4)c2c1 [Example 58, 6-(((3R,4R)-3-Aminotetrahydro-2H-pyran-4-yl)amino)-7-fluoro-4-(5-methylpyrazolo[1,5-a]pyridin-3-yl)-1H-pyrrolo[3,4-c]pyridin-3 (2H)-one]
15.8 nM	Cc1cc(-c2nc(N[C@@H]3CCOC[C@@H]3N)c(F)c3c2C(=O)N[C@@H]3C)sn1 [Example 56, (R)-6-(((3R,4R)-3-Aminotetrahydro-2H-pyran-4-yl)amino)-7-fluoro-1-methyl-4-(3-methylisothiazol-5-yl)-1H-pyrrolo[3,4-c]pyridin-3(2H)-one]
